# Tests used:
# Staphylococcus aureus [1] = test: Antibacterial activity against MsrA pump expressing Staphylococcus aureus after 24 hrs by geometric microdilution method; assay type: functional
# Staphylococcus aureus [2] = test: Antibacterial activity against aminoglycoside-6'-N-acetyltransferase/2''-O-phosphoryltransferase expressing Staphylococcus aureus after 24 hrs by geometric microdilution method; assay type: functional
# Staphylococcus aureus [3] = test: Antibacterial activity against aminoglycoside-3'-O-phosphoryltransferase expressing Staphylococcus aureus after 24 hrs by geometric microdilution method; assay type: functional
# Staphylococcus aureus [4] = test: Antibacterial activity against aminoglycoside-4'-O-phosphoryltransferase expressing Staphylococcus aureus after 24 hrs by geometric microdilution method; assay type: functional
# Staphylococcus aureus [5] = test: Antibacterial activity against Staphylococcus aureus ATCC 25923 after 24 hrs by geometric microdilution method; assay type: functional; settings: ATCC 25923, 24 h
# Staphylococcus aureus [6] = test: Antibacterial activity against NorA pump expressing Staphylococcus aureus after 24 hrs by geometric microdilution method; assay type: functional
# Staphylococcus aureus [7] = test: Antibacterial activity against methicillin-resistant Staphylococcus aureus ATCC 33592 clinical isolate after 24 hrs by geometric microdilution method; assay type: functional; settings: ATCC 33592, 24 h
# Staphylococcus aureus [8] = test: Antibacterial activity against vancomycin-resistant Staphylococcus aureus VRS-2 after 24 hrs by geometric microdilution method; assay type: functional; settings: VRS-2, 24 h
# Acinetobacter lwoffii [9] = test: Antibacterial activity against […] expressing Acinetobacter lwoffii AI.88-483 after 24 hrs by geometric microdilution method; assay type: functional; settings: AI.88-483, 24 h
# Pseudomonas aeruginosa [10] = test: Antibacterial activity against Pseudomonas aeruginosa ATCC 27853 after 24 hrs by geometric microdilution method; assay type: functional; settings: ATCC 27853, 24 h
# Pseudomonas aeruginosa [11] = test: Antibacterial activity against AAC6'-2a expressing Pseudomonas aeruginosa F03 after 24 hrs by geometric microdilution method; assay type: functional; settings: F03, 24 h
# Pseudomonas aeruginosa [12] = test: Antibacterial activity against MexXY expressing Pseudomonas aeruginosa PT629 after 24 hrs by geometric microdilution method; assay type: functional; settings: PT629, 24 h
# Klebsiella pneumoniae = test: Antibacterial activity against Klebsiella pneumoniae ATCC 700603 after 24 hrs by geometric microdilution method; assay type: functional; settings: ATCC 700603, 24 h
# Escherichia coli [13] = test: Antibacterial activity against AAC6'-2b expressing Escherichia coli PAZ505H8101 after 24 hrs by geometric microdilution method; assay type: functional; settings: PAZ505H8101, 24 h
# Escherichia coli [14] = test: Antibacterial activity against ANT2'-2a expressing Escherichia coli L58058.1 after 24 hrs by geometric microdilution method; assay type: functional; settings: L58058.1, 24 h
# Pseudomonas aeruginosa [15] = test: Antibacterial activity against Pseudomonas aeruginosa PAO1 after 24 hrs by geometric microdilution method; assay type: functional; settings: PAO1, 24 h
# Pseudomonas aeruginosa [16] = test: Antibacterial activity against MexCD expressing Pseudomonas aeruginosa PA01 after 24 hrs by geometric microdilution method; assay type: functional; settings: PA01, 24 h
# Pseudomonas aeruginosa [17] = test: Antibacterial activity against MexEF expressing Pseudomonas aeruginosa PA03 after 24 hrs by geometric microdilution method; assay type: functional; settings: PA03, 24 h
# Pseudomonas aeruginosa [18] = test: Antibacterial activity against MexAB expressing Pseudomonas aeruginosa PA21 after 24 hrs by geometric microdilution method; assay type: functional; settings: PA21, 24 h
# Pseudomonas aeruginosa [19] = test: Antibacterial activity against MexXY expressing Pseudomonas aeruginosa PA22 after 24 hrs by geometric microdilution method; assay type: functional; settings: PA22, 24 h
# Pseudomonas aeruginosa [20] = test: Antibacterial activity against TriABC expressing MexAB, MexCD, MexEF, MexXY deleted Pseudomonas aeruginosa PA405 after 24 hrs by geometric microdilution method; assay type: functional; settings: PA405, 24 h
# Pseudomonas aeruginosa [21] = test: Antibacterial activity against MexAB, MexCD, MexEF, MexXY, TriABC deleted Pseudomonas aeruginosa PA406 after 24 hrs by geometric microdilution method; assay type: functional; settings: PA406, 24 h
# Acinetobacter lwoffii [22] = test: microbe, parasite or virus in culture; settings: ATCC 17925, 24 h
# Description: Antibacterial activity against Acinetobacter lwoffii ATCC 17925 after 24 hrs by geometric microdilution method
# Escherichia coli [23] = test: microbe, parasite or virus in culture; settings: ATCC 25922, 24 h
# Description: Antibacterial activity against Escherichia coli ATCC 25922 after 24 hrs by geometric microdilution method
SMILES,MIC (Staphylococcus aureus [1]) [µg/mL],MIC (Staphylococcus aureus [2]) [µg/mL],MIC (Staphylococcus aureus [3]) [µg/mL],MIC (Staphylococcus aureus [4]) [µg/mL],MIC (Staphylococcus aureus [5]) [µg/mL],MIC (Staphylococcus aureus [6]) [µg/mL],MIC (Acinetobacter lwoffii [9]) [µg/mL],MIC (Pseudomonas aeruginosa [10]) [µg/mL],MIC (Pseudomonas aeruginosa [11]) [µg/mL],MIC (Pseudomonas aeruginosa [12]) [µg/mL],MIC (Klebsiella pneumoniae) [µg/mL],MIC (Escherichia coli [13]) [µg/mL],MIC (Escherichia coli [14]) [µg/mL],MIC (Pseudomonas aeruginosa [15]) [µg/mL],MIC (Pseudomonas aeruginosa [16]) [µg/mL],MIC (Pseudomonas aeruginosa [17]) [µg/mL],MIC (Pseudomonas aeruginosa [18]) [µg/mL],MIC (Pseudomonas aeruginosa [19]) [µg/mL],MIC (Pseudomonas aeruginosa [20]) [µg/mL],MIC (Pseudomonas aeruginosa [21]) [µg/mL],also measured
NC[C@H]1O[C@H](O[C@H]2[C@H](O)[C@@H](OCc3ccccn3)[C@H](N)C[C@@H]2N)[C@H](N)[C@@H](OCc2ccccn2)[C@@H]1OCc1ccccn1,> 128,> 128,> 128,> 128,> 128,> 128,,,,,,,,,,,,,,,
NC[C@H]1O[C@H](O[C@H]2[C@H](O)[C@@H](OCc3ccccc3)[C@H](N)C[C@@H]2N)[C@H](N)[C@@H](OCc2ccccc2)[C@@H]1O,> 128,> 128,> 128,> 128,> 128,> 128,,,,,,,,,,,,,,,
NC[C@H]1O[C@H](O[C@H]2[C@H](O)[C@@H](O)[C@H](N)C[C@@H]2N)[C@H](N)[C@@H](OCc2ccc3ccccc3c2)[C@@H]1O,> 128,> 128,128,> 128,> 128,> 128,,,,,,,,,,,,,,,
NC[C@H]1O[C@H](O[C@H]2[C@H](OCc3ccc4ccccc4c3)[C@@H](O)[C@H](N)C[C@@H]2N)[C@H](N)[C@@H](O)[C@@H]1O,> 128,> 128,> 128,> 128,> 128,> 128,,,,,,,,,,,,,,,
NC[C@H]1O[C@H](O[C@H]2[C@H](O)[C@@H](O)[C@H](N)C[C@@H]2N)[C@H](N)[C@@H](O)[C@@H]1O [NEAMINE],16,16,> 128,> 128,32,32,> 128,> 128,> 128,> 128,32,> 128,32,> 128,> 128,> 128,> 128,> 128,128,128,MIC (Staphylococcus aureus [7]): > 128 µg/mL; MIC (Staphylococcus aureus [8]): > 128 µg/mL; MIC (Acinetobacter lwoffii [22]): 2 µg/mL; MIC (Escherichia coli [23]): 32 µg/mL
NC[C@H]1O[C@H](O[C@H]2[C@H](OCc3ccc4ccccc4c3)[C@@H](O)[C@H](N)C[C@@H]2N)[C@H](N)[C@@H](O)[C@@H]1OCc1ccc2ccccc2c1,128,128,32,128,64,128,> 128,128,> 128,> 128,> 128,128,128,> 128,> 128,> 128,> 128,> 128,16,16,MIC (Staphylococcus aureus [7]): 64 µg/mL; MIC (Staphylococcus aureus [8]): 64 µg/mL; MIC (Acinetobacter lwoffii [22]): 32 µg/mL; MIC (Escherichia coli [23]): 128 µg/mL
NC[C@H]1O[C@H](O[C@H]2[C@H](OCc3ccc4ccccc4c3)[C@@H](OCc3ccc4ccccc4c3)[C@H](N)C[C@@H]2N)[C@H](N)[C@@H](OCc2ccc3ccccc3c2)[C@@H]1OCc1ccc2ccccc2c1,,,,,,,> 128,64,64,64,128,64,64,64,64,64,64,64,64,64,
NC[C@H]1O[C@H](O[C@H]2[C@H](O)[C@@H](OCc3ccc4ccccc4c3)[C@H](N)C[C@@H]2N)[C@H](N)[C@@H](O)[C@@H]1OCc1ccc2ccccc2c1,32,32,16,16,32,32,> 128,> 128,> 128,> 128,> 128,64,128,> 128,128,16,> 128,> 128,32,16,MIC (Staphylococcus aureus [7]): 64 µg/mL; MIC (Staphylococcus aureus [8]): 32 µg/mL; MIC (Acinetobacter lwoffii [22]): 64 µg/mL; MIC (Escherichia coli [23]): 128 µg/mL

# Source: ChEMBL document CHEMBL1156794, “Synthesis and antimicrobial evaluation of amphiphilic neamine derivatives” (J Med Chem, 2010)
